# Reference: patent publication US10092648B2, “Selective glucagon-like-peptide-2 (GLP-2) analogues” (Zealand Pharma A/S, priority 2006, dated 2018)
# Where “and” joins values, the source holds several entries; their conditions need not be identical. Equal values may be shown once.
# Columns and labels:
# [1] = test system: male C57BL mice; assay: In vivo stimulation of intestinal growth, 200 nmol/kg (Example 11); conditions: for Sensitivity index Si/Colon: relative to 1559
# Procedure: The ability of further compounds to selectively stimulate small intestinal mass, relative to colon mass was determined in male C57BL mice. A similar protocol was used to that described above in Example 10 except that 200 nmol/kg of each compound was administered per day. Thus, individual groups (n=6-10) of mice were given 200 nmol/kg of each compound, s.c, once daily for three consecutive days. Other groups of animals were given either an equimolar dose of [[…]]GLP-2 (reference compound) or vehicle (phosphate buffered saline, pH 7.4; negative controls) in the same dosing regimen. Twenty-four hours after the last dose of compound the mice were sacrificed and the stomach, small intestine and the colon emptied and weighed.
# [2] = test system: male C57BL mice; assay: In vivo stimulation of stomach growth, 200 nmol/kg (Example 12)
# Procedure: The effects of the test compounds according to the invention were determined based on the ability of the peptides to selectively increase stomach mass, relative to vehicle control. The ability of the present compounds (ZP2395, ZP2396, ZP2400, ZP2412, ZP2394 and ZP2401) to selectively stimulate stomach mass, relative to colon mass was determined in male C57BL mice. Individual groups (n=6-10) of mice were given 200 nmol/kg of each compound, s.c, once daily for three consecutive days. For comparison purposes other groups of animals were given either an equimolar dose of [[…]]GLP-2 or vehicle (phosphate buffered saline, pH 7.4) in the same dosing regimen. Twenty-four hours after the last dose of compound had been given the mice were sacrificed and the stomach and small intestine (from the pylorus to the ileocaecal junction) emptied and weighed. To correct for slight difference in body weight (BW), the organ mass of the stomach is presented relative to BW. […] To evaluate the differential growth pattern induced by ZP compounds, compared to [[…]]GLP-2, on the stomach, the stomach-colon sensitivity index of compound X was calculated as: (Stomach/Colon)x/Stomach/(Colon)[[…]]GLP-2% Compounds with a stomach/colon sensitivity greater than or equal to 1.05 were considered relatively selective for the stomach.
# [3] = 200 nmol/kg s.c. once daily for 3 days
# [4] = 200 nmol/kg s.c. once daily for 3 days, relative to 1559
# [5] = colon weight relative to body weight, relative to ZP1559
# [6] = small intestine weight relative to body weight, relative to ZP1559
substance,measurement,setting,value
H-HGEGSFSDELNTILESLAASDFISWLISTKITDKKKKKK-NH2 [ZP2382],"Colon-BW, compared to 1559 in %",[1]; [3],106%
same,"Organ selectivity (FIG. 8, unselective compounds)",[1]; [3],"unselective for the small intestine, colon or stomach"
same,"SI-BW, compared to 1559 in %",[1]; [3],103%
same,Sensitivity index Si/Colon,[1]; [3],0.97
same,"Sto-BW, compared to 1559 in %",[2]; [3],101%
same,Sensitivity index Stomach/Co,[2]; [4],0.95
H-HGEGSFSDELLTILELLAALDFILWLILTKITDKKKKKK-NH2 [ZP2424],"Colon-BW, compared to 1559 in %",[1]; [3],98%
same,"Organ selectivity (FIG. 8, unselective compounds)",[1]; [3],"unselective for the small intestine, colon or stomach"
same,"SI-BW, compared to 1559 in %",[1]; [3],86%
same,Sensitivity index Si/Colon,[1]; [3],0.88
same,"Sto-BW, compared to 1559 in %",[2]; [3],91%
same,Sensitivity index Stomach/Co,[2]; [4],0.93
H-HGEGSFSDELSTILESLAASDFISWLISTKITDKKKKKK-NH2 [ZP2380],"Colon-BW, compared to 1559 in %",[1]; [3],102%
same,Preferential stimulation of epithelial growth in the small intestine (summary),[1]; [3],preferentially stimulating epithelial growth in the small intestine
same,"SI-BW, compared to 1559 in %",[1]; [3],108%
same,Selectivity for small intestinal mass relative to colon mass (FIG. 6),[1]; [3],"selectively increase small intestinal mass, relative to colon mass"
same,Sensitivity index Si/Colon,[1]; [3],1.06
same,"Colon-BW, compared to 1559 in %",[1]; [5],102%
same,"SI-BW, compared to 1559 in %",[1]; [6],108%
same,"Sto-BW, compared to 1559 in %",[2]; [3],98%
same,Sensitivity index Stomach/Co,[2]; [4],0.96
same,Sensitivity index Stomach/Co,[2]; ratio Stomach-BW / Colon-BW,0.96
H-HGEGSFSDELFTILEFLAASDFISWLISTKITD-NH2 [ZP2401],"Colon-BW, compared to 1559 in %",[1]; [3],88%
same,"SI-BW, compared to 1559 in %",[1]; [3],98%
same,Sensitivity index Si/Colon,[1]; [3],1.11
same,"Colon-BW, compared to 1559 in %",[1]; [5],88%
same,"SI-BW, compared to 1559 in %",[1]; [6],98%
same,Preferential stimulation of epithelial growth in the stomach (summary),[2]; [3],preferentially stimulating epithelial growth in the stomach
same,Selectivity for stomach mass relative to colon mass (FIG. 7),[2]; [3],"selectively increase stomach mass, relative to colon mass"
same,"Sto-BW, compared to 1559 in %",[2]; [3],107%
same,Sensitivity index Stomach/Co,[2]; [4],1.22
same,Sensitivity index Stomach/Co,[2]; ratio Stomach-BW / Colon-BW,1.22
H-HGEGSFSDELATILEALAAADFISWLIATKITD-NH2 [ZP2418],"Colon-BW, compared to 1559 in %",[1]; [3],100%
same,Preferential stimulation of epithelial growth in the small intestine (summary),[1]; [3],preferentially stimulating epithelial growth in the small intestine
same,"SI-BW, compared to 1559 in %",[1]; [3],117%
same,Selectivity for small intestinal mass relative to colon mass (FIG. 6),[1]; [3],"selectively increase small intestinal mass, relative to colon mass"
same,Sensitivity index Si/Colon,[1]; [3],1.17
same,"Colon-BW, compared to 1559 in %",[1]; [5],100%
same,"SI-BW, compared to 1559 in %",[1]; [6],117%
same,"Sto-BW, compared to 1559 in %",[2]; [3],91%
same,Sensitivity index Stomach/Co,[2]; [4],0.91
same,Sensitivity index Stomach/Co,[2]; ratio Stomach-BW / Colon-BW,0.91
H-HGEGSFSDELFTILEFLAASDFISWLISTKITDKKKKKK-NH2 [ZP2396],"Colon-BW, compared to 1559 in %",[1]; [3],102%
same,"SI-BW, compared to 1559 in %",[1]; [3],104%
same,Sensitivity index Si/Colon,[1]; [3],1.02
same,"Colon-BW, compared to 1559 in %",[1]; [5],102%
same,"SI-BW, compared to 1559 in %",[1]; [6],104%
same,Preferential stimulation of epithelial growth in the stomach (summary),[2]; [3],preferentially stimulating epithelial growth in the stomach
same,Selectivity for stomach mass relative to colon mass (FIG. 7),[2]; [3],"selectively increase stomach mass, relative to colon mass"
same,"Sto-BW, compared to 1559 in %",[2]; [3],117%
same,Sensitivity index Stomach/Co,[2]; [4],1.15
same,Sensitivity index Stomach/Co,[2]; ratio Stomach-BW / Colon-BW,1.16 and 1.15
H-HGEGSFSDELATILEALAASDFISWLISTKITDKKKKKK-NH2 [ZP2381],"Colon-BW, compared to 1559 in %",[1]; [3],104%
same,Preferential stimulation of epithelial growth in the small intestine (summary),[1]; [3],preferentially stimulating epithelial growth in the small intestine
same,"SI-BW, compared to 1559 in %",[1]; [3],123%
same,Selectivity for small intestinal mass relative to colon mass (FIG. 6),[1]; [3],"selectively increase small intestinal mass, relative to colon mass"
same,Sensitivity index Si/Colon,[1]; [3],1.18
same,"Colon-BW, compared to 1559 in %",[1]; [5],104%
same,"SI-BW, compared to 1559 in %",[1]; [6],123%
same,"Sto-BW, compared to 1559 in %",[2]; [3],92%
same,Sensitivity index Stomach/Co,[2]; [4],0.88
same,Sensitivity index Stomach/Co,[2]; ratio Stomach-BW / Colon-BW,0.88
H-HGEGSFSDELATI LEALAASDFIAWLIATKITDKKKKKK-NH2 [ZP2423],"Colon-BW, compared to 1559 in %",[1]; [3],109%
same,Preferential stimulation of epithelial growth in the small intestine (summary),[1]; [3],preferentially stimulating epithelial growth in the small intestine
same,"SI-BW, compared to 1559 in %",[1]; [3],123%
same,Selectivity for small intestinal mass relative to colon mass (FIG. 6),[1]; [3],"selectively increase small intestinal mass, relative to colon mass"
same,Sensitivity index Si/Colon,[1]; [3],1.13
same,"Colon-BW, compared to 1559 in %",[1]; [5],109%
same,"SI-BW, compared to 1559 in %",[1]; [6],123%
same,"Sto-BW, compared to 1559 in %",[2]; [3],94%
same,Sensitivity index Stomach/Co,[2]; [4],0.86
same,Sensitivity index Stomach/Co,[2]; ratio Stomach-BW / Colon-BW,0.86
H-HGEGSFSDELATILESLAAADFISWLIATKITDKKKKKK-NH2 [ZP2413],"Colon-BW, compared to 1559 in %",[1]; [3],117%
same,"Organ selectivity (FIG. 8, unselective compounds)",[1]; [3],"unselective for the small intestine, colon or stomach"
same,"SI-BW, compared to 1559 in %",[1]; [3],116%
same,Sensitivity index Si/Colon,[1]; [3],0.99
same,"Sto-BW, compared to 1559 in %",[2]; [3],108%
same,Sensitivity index Stomach/Co,[2]; [4],0.92
H-HGEGSFSDELSTILEALAASDFISWLISTKITDKKKKKK-NH2 [ZP2385],"Colon-BW, compared to 1559 in %",[1]; [3],95%
same,Preferential stimulation of epithelial growth in the small intestine (summary),[1]; [3],preferentially stimulating epithelial growth in the small intestine
same,"SI-BW, compared to 1559 in %",[1]; [3],110%
same,Selectivity for small intestinal mass relative to colon mass (FIG. 6),[1]; [3],"selectively increase small intestinal mass, relative to colon mass"
same,Sensitivity index Si/Colon,[1]; [3],1.16
same,"Colon-BW, compared to 1559 in %",[1]; [5],95%
same,"SI-BW, compared to 1559 in %",[1]; [6],110%
same,"Sto-BW, compared to 1559 in %",[2]; [3],93%
same,Sensitivity index Stomach/Co,[2]; [4],0.98
same,Sensitivity index Stomach/Co,[2]; ratio Stomach-BW / Colon-BW,0.98
H-HGEGSFSDELATILEALAASDFIAWLIATKITD-NH2 [ZP2417],"Colon-BW, compared to 1559 in %",[1]; [3],106%
same,Preferential stimulation of epithelial growth in the small intestine (summary),[1]; [3],preferentially stimulating epithelial growth in the small intestine
same,"SI-BW, compared to 1559 in %",[1]; [3],119%
same,Selectivity for small intestinal mass relative to colon mass (FIG. 6),[1]; [3],"selectively increase small intestinal mass, relative to colon mass"
same,Sensitivity index Si/Colon,[1]; [3],1.12
same,"Colon-BW, compared to 1559 in %",[1]; [5],106%
same,"SI-BW, compared to 1559 in %",[1]; [6],119%
same,"Sto-BW, compared to 1559 in %",[2]; [3],90%
same,Sensitivity index Stomach/Co,[2]; [4],0.85
same,Sensitivity index Stomach/Co,[2]; ratio Stomach-BW / Colon-BW,0.85
H-HGEGSFSDELATILESLAAADFIAWLIATKITDKKKKKK-NH2 [ZP2415],"Colon-BW, compared to 1559 in %",[1]; [3],106%
same,"Organ selectivity (FIG. 8, unselective compounds)",[1]; [3],"unselective for the small intestine, colon or stomach"
same,"SI-BW, compared to 1559 in %",[1]; [3],106%
same,Sensitivity index Si/Colon,[1]; [3],1.00
same,"Sto-BW, compared to 1559 in %",[2]; [3],100%
same,Sensitivity index Stomach/Co,[2]; [4],0.94
H-HGEGSFSDELLTILELLAAADFIAWLIATKITDKKKKKK-NH2 [ZP2412],"Colon-BW, compared to 1559 in %",[1]; [3],99%
same,"SI-BW, compared to 1559 in %",[1]; [3],94%
same,Sensitivity index Si/Colon,[1]; [3],0.95
same,"Colon-BW, compared to 1559 in %",[1]; [5],99%
same,"SI-BW, compared to 1559 in %",[1]; [6],94%
same,Preferential stimulation of epithelial growth in the stomach (summary),[2]; [3],preferentially stimulating epithelial growth in the stomach
same,Selectivity for stomach mass relative to colon mass (FIG. 7),[2]; [3],"selectively increase stomach mass, relative to colon mass"
same,"Sto-BW, compared to 1559 in %",[2]; [3],106%
same,Sensitivity index Stomach/Co,[2]; [4],1.07
same,Sensitivity index Stomach/Co,[2]; ratio Stomach-BW / Colon-BW,1.07
